PubChem BioAssay (NCI)
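Where inhibition never reached the appropriate level, the endpoint shown equals the highest concentration tested. Otherwise, values were interpolated linearly from a five-concentration, 48-hour dose response in 96-well plates. GI50: concentration for 50% inhibition of growth. At the TGI there is no net growth.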

Tests used:
Test in all cases: NCI-60 cell line screen, 48 h
BT-549 breast = tested on: BT-549 breast
HCT-116 colon = tested on: HCT-116 colon
HOP-92 NSCLC = tested on: HOP-92 NSCLC
MOLT-4 leukemia = tested on: MOLT-4 leukemia
HOP-62 NSCLC = tested on: HOP-62 NSCLC
UO-31 renal = tested on: UO-31 renal
MALME-3M melanoma = tested on: MALME-3M melanoma
EKVX NSCLC = tested on: EKVX NSCLC
SF-268 CNS = tested on: SF-268 CNS
KM12 colon = tested on: KM12 colon

## Cn1ccc2c(c1=O)C(=O)c1nccc3c1c-2nc1ccccc13
BT-549 breast
  GI50: 2.12 µM
  TGI: 4.77 µM
HCT-116 colon
  GI50: 1.35 µM
  TGI: 2.87 µM
HOP-92 NSCLC
  GI50: 1.81 µM
  TGI: 20.4 µM
MOLT-4 leukemia
  GI50: 2.26 µM
  TGI: 7.01 µM
HOP-62 NSCLC
  GI50: 1.45 µM
  TGI: 2.81 µM
UO-31 renal
  GI50: 1.55 µM
  TGI: 3.21 µM
MALME-3M melanoma
  GI50: 2.2 µM
  TGI: 4.09 µM
EKVX NSCLC
  GI50: 1.65 µM
  TGI: 3.16 µM

## CN(CC(=O)O)c1ccc(/C=C/c2ccnc3ccccc23)cc1
BT-549 breast
  TGI: 70.4 µM
HCT-116 colon
  TGI: 69.8 µM
HOP-92 NSCLC
  TGI: > 100 µM
HOP-62 NSCLC
  TGI: > 100 µM
SF-268 CNS
  TGI: 61.1 µM
KM12 colon
  TGI: 41.2 µM
UO-31 renal
  TGI: 54 µM
EKVX NSCLC
  TGI: 30.8 µM

## CC(=O)NCCSC(=O)c1ccccc1
BT-549 breast
  TGI: 3.75 µM
HCT-116 colon
  TGI: 0.275 µM
HOP-92 NSCLC
  TGI: 15.5 µM
MOLT-4 leukemia
  TGI: 0.0902 µM
HOP-62 NSCLC
  TGI: 0.525 µM
SF-268 CNS
  TGI: 2.02 µM
KM12 colon
  TGI: 2.54 µM
MALME-3M melanoma
  TGI: 0.304 µM
EKVX NSCLC
  TGI: 8.24 µM

## CCN(CCNc1ccc(C)c2sc3cc(Cl)ccc3c(=O)c12)CC(C)O (centres undefined)
BT-549 breast
  GI50: 2.71 µM
  TGI: 10.1 µM
HCT-116 colon
  GI50: 1.66 µM
  TGI: 3.02 µM
HOP-92 NSCLC
  GI50: 1.61 µM
  TGI: 4.28 µM
MOLT-4 leukemia
  GI50: 1.62 µM
  TGI: 3.49 µM
HOP-62 NSCLC
  GI50: 1.52 µM
  TGI: 2.86 µM
SF-268 CNS
  GI50: 3.29 µM
  TGI: 16 µM
KM12 colon
  GI50: 1.84 µM
  TGI: 3.88 µM
MALME-3M melanoma
  GI50: 1.36 µM
  TGI: 2.77 µM
EKVX NSCLC
  GI50: 2.28 µM
  TGI: 7.3 µM

## COc1ccc(-c2nnc(SCC(=O)Nc3ccc(/C(C)=N\O)cc3)n2-c2ccccc2)cc1OC
BT-549 breast
  GI50: 13.7 µM
  TGI: > 100 µM
HCT-116 colon
  GI50: 11.3 µM
  TGI: > 100 µM
HOP-92 NSCLC
  GI50: 2.12 µM
  TGI: 6.42 µM
MOLT-4 leukemia
  GI50: > 100 µM
  TGI: > 100 µM
HOP-62 NSCLC
  GI50: 2.06 µM
  TGI: 6.8 µM
SF-268 CNS
  GI50: 3.07 µM
  TGI: 20.3 µM
KM12 colon
  GI50: > 100 µM
  TGI: > 100 µM
UO-31 renal
  GI50: > 100 µM
  TGI: > 100 µM
MALME-3M melanoma
  GI50: 17.2 µM
  TGI: > 100 µM

## COC1(O)C(=O)c2ccccc2OC1(OC)c1ccccc1 (centres undefined)
BT-549 breast
  TGI: > 100 µM
HCT-116 colon
  TGI: > 100 µM
HOP-92 NSCLC
  TGI: > 100 µM
MOLT-4 leukemia
  TGI: > 100 µM
HOP-62 NSCLC
  TGI: > 100 µM
SF-268 CNS
  TGI: > 100 µM
MALME-3M melanoma
  TGI: > 100 µM
EKVX NSCLC
  TGI: > 100 µM

## COc1ccc(-c2cnnn2-c2cc(OC)c3c(c2)OCO3)cc1
BT-549 breast
  GI50: 0.101 µM
  TGI: 28.6 µM
HCT-116 colon
  GI50: 0.0596 µM
  TGI: > 42.3 µM
HOP-92 NSCLC
  GI50: 0.187 µM
  TGI: 24.8 µM
MOLT-4 leukemia
  GI50: 0.266 µM
  TGI: > 27.2 µM
HOP-62 NSCLC
  GI50: 0.113 µM
  TGI: > 100 µM
SF-268 CNS
  GI50: 0.775 µM
  TGI: > 100 µM
KM12 colon
  GI50: 0.0564 µM
  TGI: > 30.8 µM
UO-31 renal
  GI50: 1.1 µM
  TGI: > 100 µM

## O=C1CC(c2ccc3c(c2)OCO3)Nc2cc3c(cc21)OCO3 (centres undefined)
BT-549 breast
  GI50: 3.24 µM
  TGI: > 100 µM
HCT-116 colon
  GI50: 1.27 µM
  TGI: > 100 µM
MOLT-4 leukemia
  GI50: 0.56 µM
  TGI: > 100 µM
HOP-62 NSCLC
  GI50: 0.523 µM
  TGI: > 100 µM
SF-268 CNS
  GI50: 0.83 µM
  TGI: > 100 µM
KM12 colon
  GI50: 0.398 µM
  TGI: 17.3 µM
UO-31 renal
  GI50: 0.767 µM
  TGI: > 100 µM
EKVX NSCLC
  GI50: 1.93 µM
  TGI: 72.6 µM
